Data as given in patent publication US7906106B2, “In vivo cell trafficking” (General Electric Company, priority 2007, dated 2011).

Test system: granuloma-derived nucleated cells
Assay: FACS analysis to determine cell viability (7-AAD) after staining with Cy7.5 NHS-ester
Format: cell-based, mouse
Details: granuloma-derived nucleated cells stained with 1 μg dye in 10 ml PBS, on ice 20 minutes
Protocol: Cell Staining. 1 μg of Cy 7.5-NHS ester was mixed in 10 ml of PBS. The cells are resuspended in the buffer and left on ice for 20 minutes. Cells were washed three times in PBS and the cell pellet is placed under Optix scanner to confirm cell staining. The cells were resuspended in PBS and 100 μl of the cell suspension (containing 0.5×10^6 cells/100 μl) was injected via the tail vein. The stained cell pellet generated signal that was detected by the scanner.
FACS Analysis to Determine Cell Viability. Stained cells were washed three times in PBS and resuspended in 100 μl PBS. The cell suspension was incubated with 20 μl of 7-AAD for 20 minutes at room temperature. The cells are washed once in PBS and resuspended in 500 μl of PBS, then analyzed in FACS for viability.
FACS Analysis for Cellular Markers. The cells were stained with cell markers for leukocytes (CD45) and monocyte/macrophage (CD 11 b). Both CD11b and CD45 antibodies were purchased from Miltenyi Biotec and stained following vendors instructions. Thus, 10 μl of CD11b PE antibody and 10 μl CD45 FITC were incubated with 1×10^6 cells for 20 minutes. The cells were washed in PBS, resuspend in 0.5 mL PBS, and run on Flow Cytometer (Beckman Coulter FC500 MPL). The cells were viable after staining with Cye7.5 NHS-ester and 72% of cell population in the suspension were positive for CD45 and CD11b.

Cy7.5-NHS ester [Cye7.5 NHS-ester]
cell viability after staining: viable
